This is an account of results in patent publication US20110009379A1, “INDOLINONE COMPOUND” (ASTELLAS PHARMA INC., priority 2008, published 2011).

The melting point is the temperature of the solid-liquid transition. Broadly, the ED50 is the dose that gives a 50% effect, or the effect in half of the subjects. As usually defined, the EC50 is the midpoint of the concentration-response curve. A word on the IC50: it is the point on the concentration scale where inhibition reaches its midpoint. A higher IC50 goes with weaker potency.

One data set relates to gastric emptying of rats. As to the kind of experiment: Activity to gastric emptying of TRPA1 agonist (phenol red, rats). The format is in vivo. The following applies: Rattus norvegicus; male wistar rats, oral administration, versus control animals; read-out: ED50 (amount which suppresses 50% of gastric emptying). An excerpt:
When EC cell is stimulated by content of a gastrointestinal tract, 5-HT is secreted. The secreted 5-HT promotes the secretion or motility through a 5-HT receptor present in intestinal nerve plexus or gastrointestinal smooth muscle. The secreted 5-HT is instantly taken into a cell by its specific transporter, and is metabolized by […]. Thus, while it is considerably difficult to directly measure the secreted 5-HT concentration, it has been known that gastric emptying is delayed as a physiological activity through 5-HT in rodents. In order to verify in vivo activity through 5-HT of the compound to be tested, activity to gastric emptying of rats by various TRPA1 agonists was studied.
In the experiment, male wistar rats (body weight 290 to 360 g) were used. The animals were purchased from Japan SLC (Shizuoka). The animals were allowed to drink water freely under a constitutive environment.
5 minutes after the medicine was orally administered, 0.05% phenol red solution (1.5 mL) was orally administered. After 15 minutes, rats were put painlessly to death by cervical vertebral dislocation, their stomachs were exenterated, and phenol red was eluted with 0.1M aqueous NaOH solution (5 mL) from the exenterated stomachs. 20% aqueous trichloroacetic acid solution (0.1 mL) was added to the NaOH solution (0.5 mL), followed by stirring and centrifugation at 15,000 rpm, at 4° C., for 10 minutes. 0.5M aqueous NaOH solution (0.2 mL) was added to the supernatant (0.05 mL), followed by stirring, and absorbance at 560 nm was measured using an absorption spectrometer (spectrometer spectramax M2; Molecular Devices, CA, USA).
A gastric emptying was calculated by the following calculating formula.
Gastric emptying (%)=100−(A/B)×100
A: amount of phenol red remaining in stomach
B: amount of phenol red remaining in stomach just after administering phenol red
ED50 values (amount of the compound to be tested which suppresses 50% of gastric emptying, with respect to the control animals without administering the compound to be tested) of some of the compounds of the formula (I) are shown in Table 2. In this connection, comparative compound 1 and comparative compound 2 are (3E)-1-methyl-3-(2-oxopropyridene)-1,3-dihydro-2H-indol-2-one, and (3E)-3-(2-oxopropyridene)-1-prop-2-in-1-yl-1,3-dihydro-2H-indol-2-one described in Non Patent Document 4 above, and has the following chemical structures, respectively.

For a further data set, the target named is T1, human TRPA1 (Homo sapiens, UniProt O75762, K186N/R3C/R58T).
T1 construct: expressed in transfected cells; pcDNA3.1(+) vector)
T1 sequence (O75762 whole entry R3C/R58T/K186N): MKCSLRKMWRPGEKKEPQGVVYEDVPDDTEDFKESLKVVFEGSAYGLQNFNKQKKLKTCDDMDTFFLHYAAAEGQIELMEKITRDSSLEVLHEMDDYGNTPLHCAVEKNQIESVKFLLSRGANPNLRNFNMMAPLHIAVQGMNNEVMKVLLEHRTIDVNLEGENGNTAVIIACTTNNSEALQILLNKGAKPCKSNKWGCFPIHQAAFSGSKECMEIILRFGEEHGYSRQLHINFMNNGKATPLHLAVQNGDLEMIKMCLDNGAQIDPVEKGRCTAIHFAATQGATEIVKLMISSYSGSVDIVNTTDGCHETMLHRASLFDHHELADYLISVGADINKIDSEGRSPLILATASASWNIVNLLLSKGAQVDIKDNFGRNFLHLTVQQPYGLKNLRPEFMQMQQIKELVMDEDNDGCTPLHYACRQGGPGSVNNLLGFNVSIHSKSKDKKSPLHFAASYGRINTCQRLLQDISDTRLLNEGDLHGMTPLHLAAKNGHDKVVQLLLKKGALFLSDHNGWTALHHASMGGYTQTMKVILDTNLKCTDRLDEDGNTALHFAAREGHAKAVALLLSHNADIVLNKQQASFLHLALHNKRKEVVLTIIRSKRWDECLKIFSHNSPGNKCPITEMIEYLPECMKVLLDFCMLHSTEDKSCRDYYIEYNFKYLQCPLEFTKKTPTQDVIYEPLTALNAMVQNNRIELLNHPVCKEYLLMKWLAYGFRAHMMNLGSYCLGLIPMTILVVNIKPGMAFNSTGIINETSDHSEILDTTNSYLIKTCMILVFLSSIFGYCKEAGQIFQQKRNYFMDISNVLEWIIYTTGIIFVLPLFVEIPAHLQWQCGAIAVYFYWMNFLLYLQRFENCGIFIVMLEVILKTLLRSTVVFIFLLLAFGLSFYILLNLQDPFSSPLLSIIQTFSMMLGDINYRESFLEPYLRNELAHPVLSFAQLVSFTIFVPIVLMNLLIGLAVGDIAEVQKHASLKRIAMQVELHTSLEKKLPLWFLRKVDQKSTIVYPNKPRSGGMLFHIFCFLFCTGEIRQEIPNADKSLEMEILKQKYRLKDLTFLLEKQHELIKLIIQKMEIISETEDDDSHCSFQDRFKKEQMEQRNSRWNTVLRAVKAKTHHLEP
As to the kind of experiment: Measurement of TRPA1 activation activity (intracellular calcium, FLIPR, HEK293 cells stably expressing human TRPA1). The format is cell-based. The following applies: change of intracellular calcium concentration. The protocol: 10 ng of Human brain mRNA (Clontech Co.) was treated with DNase, and then was reverse transcribed using kit for reverse transcription-polymerase chain reaction (RT-PCR) (SUPERSCRIPT First-Strand Synthesis System for RT-PCR; Invitrogen Co.) to synthesize the first strand cDNA. PCR using a hot start method was performed using the first strand cDNA as a template and Taq DNA polymerase (LA Taq DNA polymerase; TAKARA SHUZO). The PCR was performed using oligonucleotides consisting of the nucleotide sequences, represented by sequence number 2 as a sense primer and sequence number 3 as an antisense primer, in which firstly, heat denaturation was performed at 98° C. (1 minute), and then a cycle of 98° C. (15 seconds)/56° C. (30 seconds)/72° C. (5 minutes) was repeated 35 times. As a result, a DNA fragment of about 3.3 kbp was amplified.
The DNA fragment was cloned to pCR-TOPO vector using a cloning kit (TOPO XL PCR Cloning Kit; Invitrogen). The obtained plasmid DNA was digested with restriction enzymes KpnI and HindIII, and then was cloned using plasmid pcDNA 3.1(+)(Invitrogen). In this connection, the plasmid pcDNA 3.1(+) has a promoter sequence derived from cytemegalovirus, and can be used in order to express a protein in animal cells.
The nucleotide sequences of the obtained clones were analyzed using DNA sequencer (ABI3700 DNA Sequencer; Applied Biosystems) by dideoxyterminator method, and the nucleotide sequence represented by sequence number 1 was obtained. Furthermore, when these sequences were translated to amino acid sequences, the amino acid sequence represented by sequence number 1 was obtained.
After constructing the expression vector of the human TRPA1 gene, selection by G418 was performed from the HEK293 cells which temporarily expressed TRPA1 by transfection operation to obtain cells stably expressing TRPA1. The above operation was performed according to known methods (experimental medicine supplementary volume, “Cultivation Cell Experimental Methods for Molecular Biology Study” published by Toshio Kuroki, Namho Hue and Kazuhiro Chida, 1995, Yodosha).
In order to measure the change of the intracellular calcium concentration in the cells stably expressing the human TRPA1, the change of the intracellular calcium concentration when a compound to be tested was added was measured using FLIPR (Molecular Device).
In order to measure the change of the intracellular calcium concentration with FLIPR, the following pretreatment was performed. First of all, assay buffer was prepared which was for adding fluorescent pigment Fluo4-AM (DOJIN) to the cells or washing the cells just before performing FLIPR assay. To a solution (hereinafter, HBSS/HEPES solution) where 20 mL of 1M HEPES (pH 7.4; Invitrogen) was added to 1000 mL of a physiological saline buffer (Hank's Balanced Salt Solution; HBSS) (Invitrogen), was added 10 mL of a solution where 710 mg of probenecid (Sigma) was dissolved into 5 mL of 1M aqueous NaOH solution and 5 mL of HBSS/HEPES solution was further added and mixed, and the assay buffer was thus prepared. Then, 50 μg of Fluo4-AM was dissolved into 22 μL of DMSO (DOJIN), the same amount of 20% pluronic acid (Molecular Probes) was added thereto and mixed, and the mixture was added to the 10.6 mL of the assay buffer where 105 μL of fetal bovine serum was added, to prepare a fluorescent pigment solution. The medium of the cells stably expressing TRPA1 was removed, 100 μL per well of the fluorescent pigment solution was dispensed immediately, followed by cultivation in a CO2 cultivator for 1 hour, and the fluorescent pigment was soaked in the cells. The cells after cultivation were washed using the assay buffer, followed by being set in FLIPR. Furthermore, a test sample, which was added to the cells stably expressing TRPA1, was prepared by using the assay buffer, and at the same time, was set in FLIPR. […]

The target in the next data set is Cytochrome P450(2D6) (Homo sapiens, UniProt P10635). As to the kind of experiment: Cytochrome P450(2D6) enzyme inhibition test. The format is in vitro ADME. The following applies: CYP2D6, fluorescent substrate 1.5 μmol/L, 37° C., 20 minutes. The protocol:
The experiment was performed in accordance with the method of Crespi et al. (Analytical Biochemistry, 248, 188-190, 1997).
As a substrate, 3-[2-(N,N-diethyl-N-methylamino)ethyl]-7-methoxy-4-methyl coumarine (1.5 μmol/L) a compound to be tested (3.1×10^−7 to 2×10^−5 M) and an enzyme (2.5×10^−8 M) were incubated at 37° C. for 20 minutes in total of […] of 100 mM phosphorous buffer (pH=7.4) including 8.2 mM NADP+, 0.41 mM glucose-6-phosphate, 0.41 mM MgCl2 and 0.4 Units/mL glucose-6-phosphate dehydrogenase, using 96 well plates. Then, 0.5 M aqueous 2-amino-2-hydroxymethyl-1,3-propandiol solution containing 80% acetonitrile was added to stop the reaction, fluorescence intensity (excitation wavelength; 390 nm, fluorescent wavelength; 460 nm) was measured with a fluorescent plate reader. An inhibition ratio was calculated with the following formula, and the test compound concentration when the inhibition ratio is 50% (IC50) was obtained.
C1: fluorescence intensity in the presence of the test compound and enzyme at know concentrations, and the substrate
C0: fluorescence intensity in the presence of the enzyme and substrate, without the test compound
B1: fluorescence intensity of blank well

Chain of Cytochrome P450(2D6) (P10635 whole entry): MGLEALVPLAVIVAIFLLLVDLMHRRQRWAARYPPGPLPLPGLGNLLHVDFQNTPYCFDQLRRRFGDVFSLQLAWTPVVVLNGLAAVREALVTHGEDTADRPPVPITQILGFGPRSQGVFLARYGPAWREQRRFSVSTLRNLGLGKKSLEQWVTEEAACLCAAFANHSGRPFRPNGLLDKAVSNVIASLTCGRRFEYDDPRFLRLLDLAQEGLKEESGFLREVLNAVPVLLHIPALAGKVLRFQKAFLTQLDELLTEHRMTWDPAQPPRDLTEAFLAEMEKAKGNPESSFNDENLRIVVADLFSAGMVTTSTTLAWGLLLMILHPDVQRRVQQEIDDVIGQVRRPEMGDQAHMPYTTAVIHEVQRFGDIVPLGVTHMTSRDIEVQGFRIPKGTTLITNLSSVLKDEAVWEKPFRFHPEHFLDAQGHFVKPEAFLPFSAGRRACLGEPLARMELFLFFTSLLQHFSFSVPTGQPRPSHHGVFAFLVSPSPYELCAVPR

For the compound `CN(C)C(=O)/C=C1/C(=O)N(CC2CCCCC2)c2ccccc21` [Example 59, (2E)-2-[1-(cyclohexylmethyl)-2-oxo-1,2-dihydro-3H-indol-3-ylidene]-N,N-dimethylacetamide], the melting point lay within 80 to 82 °C.

`O=C(/C=C1/C(=O)N(CC2CCCC2)c2c(F)cccc21)N1CCOCC1` [Example 40]: the ED50 in the data set on gastric emptying of rats was determined as 0.59 mg/kg.

Regarding `CCC(CC)CN1C(=O)/C(=C/C(=O)O)c2cccc(F)c21` [Example 36], the ED50 in the data set on gastric emptying of rats came out at 0.069 mg/kg.

As for `O=C(/C=C1/C(=O)N(CC2CCCC2)c2c(F)cccc21)N1CCCC1` [Example 30], in the data set with gastric emptying of rats, the ED50 came out at 0.42 mg/kg.

As for `COc1cccc(CN2C(=O)/C(=C/C(=O)O)c3cccc(Cl)c32)c1` [Example 39], the ED50 in the data set with gastric emptying of rats came out at 0.24 mg/kg.

Turning to `CCC(CC)CN1C(=O)/C(=C/C(=O)N2CCC2)c2ccccc21` [Example 65, (3E)-3-(2-azetidin-1-yl-2-oxoethylidene)-1-(2-ethylbutyl)-1,3-dihydro-2H-indol-2-one], the melting point lay within 116 to 118 °C.

`NC(=O)/C=C1/C(=O)N(CC2CCCC2)c2c(F)cccc21` [Example 29]: the EC50 on human TRPA1 amounted to 660 nM.

As for `CC(C)(C)CN1C(=O)/C(=C/C(=O)O)c2ccccc21` [Example 25], the ED50 with gastric emptying of rats amounted to 0.31 mg/kg.

The compound `O=C(O)/C=C1/C(=O)N(CC2CC2)c2c(F)cccc21` [Example 37, (2E)-[1-(cyclopropylmethyl)-7-fluoro-2-oxo-1,2-dihydro-3H-indol-3-ylidene]acetic acid] had a melting point of 171 to 173 °C. For the same compound, at Cytochrome P450(2D6), the IC50 was more than 50 µM.

As to `NC(=O)/C=C1/C(=O)N(Cc2ccccc2)c2ccccc21` [Example 20], the ED50 in the data set with gastric emptying of rats came out at 4.4 mg/kg.

As for `C#CCN1C(=O)/C(=C/C(C)=O)c2ccccc21` [comparative compound 2, (3E)-3-(2-oxopropyridene)-1-prop-2-in-1-yl-1,3-dihydro-2H-indol-2-one, reference compound], the ED50 with gastric emptying of rats came out at 8.8 mg/kg.

As for `CC(C)CCN1C(=O)/C(=C/C(=O)O)c2cccc(F)c21` [Example 49, (2E)-[7-fluoro-1-(3-methylbutyl)-2-oxo-1,2-dihydro-3H-indol-3-ylidene]acetic acid], the melting point was 142 to 144 °C. At human TRPA1, the concentration giving a half-maximal response (EC50) was 830 nM.

The compound `CN(C)C(=O)/C=C1/C(=O)N(CC2CCCC2)c2c(F)cccc21` [Example 43, (2E)-2-[1-(cyclopentylmethyl)-7-fluoro-2-oxo-1,2-dihydro-3H-indol-3-ylidene]-N,N-dimethylacetamide] showed a melting point of 51 to 53 °C. On human TRPA1, the EC50 is 3760 nM. The same compound returned an IC50 against Cytochrome P450(2D6) of more than 25 µM.

With `O=C(O)/C=C1/C(=O)N(Cc2ccccc2)c2c(F)cccc21` [Example 18, (2E)-(1-benzyl-7-fluoro-2-oxo-1,2-dihydro-3H-indol-3-ylidene)acetic acid], the melting point is 168 to 170 °C. For the same compound, the ED50 in the data set with gastric emptying of rats was found to be 3.6 mg/kg.

Consider `O=C(/C=C1/C(=O)N(CC2CCCCC2)c2ccccc21)N1CCC1` [Example 61, (3E)-3-(2-azetidin-1-yl-2-oxoethylidene)-1-(cyclohexylmethyl)-1,3-dihydro-2H-indol-2-one], for which the melting point was in the range of 163 to 165 °C.

As for `CCC(CC)CN1C(=O)/C(=C/C(=O)O)c2ccccc21` [Example 63, (2E)-[1-(2-ethylbutyl)-2-oxo-1,2-dihydro-3H-indol-3-ylidene]acetic acid], the melting point was in the range of 147 to 149 °C.

Regarding `O=C(/C=C1/C(=O)N(CC2CCCC2)c2c(F)cccc21)N1CCC1` [Example 33], on human TRPA1, the EC50 turned out to be 1300 nM.

The compound `O=C(/C=C1/C(=O)N(CC2CCC2)c2ccccc21)N1CCCC1` [Example 67, (3E)-1-(cyclobutylmethyl)-3-(2-oxo-2-pyrrolidin-1-ylethylidene)-1,3-dihydro-2H-indol-2-one] had a melting point of 108 to 110 °C.

Consider `O=C(/C=C1/C(=O)N(CC2CCCC2)c2ccccc21)N1CCC1` [Example 62, (3E)-3-(2-azetidin-1-yl-2-oxoethylidene)-1-(cyclopentylmethyl)-1,3-dihydro-2H-indol-2-one], for which the melting point was 111 to 113 °C.

In turn, `O=C(/C=C1/C(=O)N(CC2CCC2)c2ccccc21)N1CCC1` [Example 66, (3E)-3-(2-azetidin-1-yl-2-oxoethylidene)-1-(cyclobutylmethyl)-1,3-dihydro-2H-indol-2-one] yielded a melting point of 133 to 135 °C.

In turn, `CC[C@H](C)CN1C(=O)/C(=C/C(=O)O)c2cccc(F)c21` [Example 47, (2E)-{7-fluoro-1-[(2S)-2-methylbutyl]-2-oxo-1,2-dihydro-3H-indol-3-ylidene}acetic acid] had a melting point of 137 to 139 °C. The 50% effective dose (ED50) in the data set on gastric emptying of rats amounted to 0.61 mg/kg. Besides, the EC50 on human TRPA1 was 1010 nM.

Take `CCC(CC)CN1C(=O)/C(=C/C(=O)N2CCCC2)c2ccccc21` [Example 64, (3E)-1-(2-ethylbutyl)-3-(2-oxo-2-pyrrolidin-1-ylethylidene)-1,3-dihydro-2H-indol-2-one]: the melting point was in the range of 71 to 73 °C.
